{"source": "patent US20200390755A1", "about": "“COMPOUND FOR TREATING NERVOUS SYSTEM DISEASES AND USE THEREOF” (SHAANXI MICOT TECHNOLOGY CO., LTD., priority 2018, published 2020)", "key": {"WT mice [1]": {"system": "WT mice", "assay": "DARPP32 protein level in striatum by Western blotting, WT mice", "type": "in vivo, mouse", "details": "5 mg/kg/d until 25 weeks, WT Vehicle = 100, n = 3", "protocol": "7-week-old N171-82Q HD male mice were paired with female B6C3F1/J hybrid mice to obtain newborn mice. From 21 days of age, male mice were housed in separate cages. 0.5 cm of mouse tail tissue was removed to extract DNA to determine the genotype of the mouse, such that N171-82Q HD mice and WT mice needed for the experiment were obtained. The mice were randomly divided into WT Vehicle group (normal mice), WT test compound group (administration group of normal mice, 5 mg/kg/d, n=10), HD Vehicle group (blank group of HD mice, n=15), HD test compound group (administration groups 1-5 of HD mice, 5 mg/kg/d, n=10). The test compound was suspended in 1% CMC-Na solution and administered by intragastric administration until the end of the study. The weights of the mice were measured every week. Behavioral tests were performed at 12 weeks, 18 weeks, and 24 weeks of age to investigate motor function. At 20 weeks, 3 samples of tissue from each group were used for western blotting and immunohistochemistry. At 24 weeks, MRI scans were performed. At the end of the study, the effect of the test compound on the mortality of mice was evaluated. […] The total protein in the striatum tissue was extracted, and the protein level of DARPP 32 was detected by Western blotting experiment. […] The protein was extracted, and the protein level of DARPP 32 was detected by Western blotting."}, "WT mice [2]": {"system": "WT mice", "assay": "Rotarod experiment, WT mice", "type": "in vivo, mouse", "details": "5 mg/kg/d intragastric", "protocol": "7-week-old N171-82Q HD male mice were paired with female B6C3F1/J hybrid mice to obtain newborn mice. From 21 days of age, male mice were housed in separate cages. 0.5 cm of mouse tail tissue was removed to extract DNA to determine the genotype of the mouse, such that N171-82Q HD mice and WT mice needed for the experiment were obtained. The mice were randomly divided into WT Vehicle group (normal mice), WT test compound group (administration group of normal mice, 5 mg/kg/d, n=10), HD Vehicle group (blank group of HD mice, n=15), HD test compound group (administration groups 1-5 of HD mice, 5 mg/kg/d, n=10). The test compound was suspended in 1% CMC-Na solution and administered by intragastric administration until the end of the study. The weights of the mice were measured every week. Behavioral tests were performed at 12 weeks, 18 weeks, and 24 weeks of age to investigate motor function. At 20 weeks, 3 samples of tissue from each group were used for western blotting and immunohistochemistry. At 24 weeks, MRI scans were performed. At the end of the study, the effect of the test compound on the mortality of mice was evaluated. The software Sigmaplot 13.0 was used for statistical analysis of the data, and the data of each group was expressed as mean standard error (x±SEM). Behavioral test results were analyzed using two-way (genotype and processing factor) ANOVA and post-ho tests, the comparison and statistics of weight data were performed using two-way (genotype and age) ANOVA of repeated measures, and mortality was counted using Kaplan-Meier method. Other measurement data were analyzed by one-way ANOVA. P<0.05 was considered statistically significant. The motor function of mice was evaluated by the rotarod experiment and three types of balance beam experiments. The shorter the time for mouse to cross the balance beam, and the longer the time to drop, the stronger the coordination ability of the mouse. […] The time the mouse remained on the rod, i.e., drop latent period, was recorded to indicate its motor coordination ability. […]"}}}
{"smiles": "O=c1cc(-c2ccc(N3CCCCC3)cc2)oc2c(O)c(O)ccc12", "note": "[Example 1, 7,8-dihydroxy-2-(4-(piperidin-1-yl)phenyl)-4H-chromen-4-one]", "values": [{"measurement": "Relative intensity of DARPP32 protein", "setting": "WT mice [1]", "result": "96.066 ± 5.805"}, {"measurement": "Time to drop (drop latent period), rotarod", "setting": "WT mice [2]; 12 w", "result": "98.33 ± 30.03", "unit": "s"}, {"measurement": "Time to drop (drop latent period), rotarod", "setting": "WT mice [2]; 18 w", "result": "78.97 ± 23.84", "unit": "s"}, {"measurement": "Time to drop (drop latent period), rotarod", "setting": "WT mice [2]; 24 w", "result": "73.72 ± 18.25", "unit": "s"}]}
